Assay results as given in ChEMBL document CHEMBL1201862, “PubChem BioAssay data set” (2004).
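96-well plates; 48 h exposure; 5 concentrations. Endpoints by linear interpolation between flanking doses. Not reached: highest tested concentration assigned. The concentration for 50% growth inhibition is given as GI50.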 Calls of active or inactive are those of the source. No stated cut-off is given here; in the data, active = GI50 up to about 1.1 µM and inactive = higher.

Assays:
Experiment in all cases: NCI tumour cell line growth inhibition, 48 h
A549 = test system: A549
M14 = test system: M14
HL-60 = test system: HL-60
K562 = test system: K562
LOX IMVI = test system: LOX IMVI
DU-145 = test system: DU-145
SF-539 = test system: SF-539
MOLT-4 = test system: MOLT-4
UO-31 = test system: UO-31
SN12C = test system: SN12C
OVCAR-3 = test system: OVCAR-3
SF-268 = test system: SF-268
SR = test system: SR
HCC 2998 = test system: HCC 2998
RPMI-8226 = test system: RPMI-8226
U-251 = test system: U-251
UACC-62 = test system: UACC-62
SNB-19 = test system: SNB-19
SNB-75 = test system: SNB-75
NCI-H23 = test system: NCI-H23

Measured: GI50

Cc1c(C)c2c(c(N)c1C#N)C(=O)N(CCN1CCNCC1)C2=O
inactive: A549 29.6 µM | M14 33.8 µM | HL-60 28.4 µM | K562 51.6 µM | LOX IMVI 20.1 µM | DU-145 29.4 µM | SF-539 32.8 µM | MOLT-4 30.5 µM | UO-31 28.6 µM | SN12C 32.5 µM | OVCAR-3 33.3 µM | SF-268 34.1 µM | SR 25.6 µM | HCC 2998 31.6 µM | RPMI-8226 38 µM | U-251 43.7 µM | UACC-62 23.2 µM | SNB-19 49.3 µM | SNB-75 26.2 µM

CC1=NN(c2cccc(Cl)c2)C2(SCC(=O)N2c2nc3ccccc3s2)/C1=C\c1ccccc1 (centres undefined)
inactive: M14 23.7 µM | HL-60 30.1 µM | K562 17.6 µM | LOX IMVI 25.5 µM | DU-145 22 µM | SF-539 26.4 µM | MOLT-4 21.2 µM | UO-31 20.1 µM | OVCAR-3 20.8 µM | SF-268 21.4 µM | SR 22.3 µM | HCC 2998 14.2 µM | RPMI-8226 18.7 µM | U-251 19.7 µM | NCI-H23 20.2 µM | SNB-75 86.5 µM

O=S(=O)(O)/C(=N\c1cccc(Cc2ccccc2)c1)Nc1cccc(Cc2ccccc2)c1
inactive: A549 22.4 µM | M14 16.4 µM | HL-60 33.4 µM | K562 31.4 µM | LOX IMVI 12.9 µM | DU-145 17 µM | SF-539 16.3 µM | MOLT-4 32.1 µM | UO-31 15.8 µM | SN12C 19.5 µM | SF-268 17.7 µM | SR 21.9 µM | HCC 2998 18.8 µM | RPMI-8226 23.8 µM | U-251 19.6 µM | UACC-62 16.5 µM | NCI-H23 16.4 µM | SNB-19 21.2 µM | SNB-75 16.1 µM

O=C(c1ccccc1)c1ccc2c(c1)nc1n2C(c2c(Cl)cccc2Cl)SC1 (centres undefined)
inactive: A549 32.7 µM | M14 48.2 µM | HL-60 39.4 µM | LOX IMVI 44 µM | DU-145 > 100 µM | SF-539 > 100 µM | MOLT-4 31.4 µM | UO-31 23.9 µM | SN12C > 100 µM | OVCAR-3 38.8 µM | SF-268 67.5 µM | SR 34 µM | HCC 2998 > 100 µM | RPMI-8226 52.4 µM | U-251 69.5 µM | UACC-62 74.1 µM | NCI-H23 47.4 µM | SNB-19 77.1 µM | SNB-75 28.4 µM

CC(=O)OC[C@@]1(C)[C@@H]2[C@@H]3[C@@]4(CO[C@]3(C)C(=O)[C@@]3(O)C[C@H](C)[C@H](OC(C)=O)[C@@H]3[C@H]4OC(C)=O)[C@H](OC(=O)c3ccccc3)C[C@@H]21
inactive: A549 > 100 µM | M14 > 100 µM | HL-60 > 100 µM | K562 > 100 µM | LOX IMVI > 100 µM | DU-145 > 100 µM | SF-539 > 100 µM | MOLT-4 > 100 µM | UO-31 > 100 µM | SN12C > 100 µM | OVCAR-3 > 100 µM | SF-268 > 100 µM | SR > 100 µM | HCC 2998 > 100 µM | RPMI-8226 > 100 µM | U-251 > 100 µM | UACC-62 > 100 µM | NCI-H23 > 100 µM | SNB-19 > 100 µM | SNB-75 > 100 µM

O=C(/C=C/c1ccsc1)c1ccsc1
inactive: A549 38.2 µM | M14 33.7 µM | HL-60 17 µM | K562 > 10 µM | LOX IMVI 19.1 µM | DU-145 > 100 µM | SF-539 17.5 µM | MOLT-4 17.6 µM | UO-31 15.4 µM | SN12C 19.5 µM | SF-268 44.8 µM | SR 19.5 µM | HCC 2998 19.5 µM | RPMI-8226 15.5 µM | U-251 18.1 µM | UACC-62 32.4 µM | NCI-H23 21.6 µM | SNB-19 20.2 µM | SNB-75 37 µM

Clc1ccc(C(OCn2ccnc2)c2nc3ccccc3[nH]2)c(Cl)c1 (centres undefined)
inactive: A549 43.4 µM | M14 54.2 µM | HL-60 22.1 µM | K562 45.7 µM | LOX IMVI 32.4 µM | DU-145 64.4 µM | SF-539 35.8 µM | MOLT-4 29.6 µM | UO-31 23.7 µM | SN12C 61.4 µM | OVCAR-3 23.5 µM | SF-268 61.8 µM | SR > 10 µM | HCC 2998 45.5 µM | RPMI-8226 24.6 µM | U-251 31.4 µM | UACC-62 35 µM | NCI-H23 32.2 µM | SNB-19 89.3 µM | SNB-75 28.9 µM

Cc1n[nH]c(=O)n1/N=C/c1ccc([N+](=O)[O-])cc1
inactive: A549 > 100 µM | HL-60 > 100 µM | K562 > 100 µM | LOX IMVI > 100 µM | DU-145 > 100 µM | SF-539 > 100 µM | MOLT-4 > 100 µM | UO-31 > 100 µM | SN12C > 100 µM | OVCAR-3 > 100 µM | SF-268 70.6 µM | SR > 100 µM | HCC 2998 > 100 µM | RPMI-8226 > 100 µM | U-251 > 100 µM | UACC-62 > 100 µM | NCI-H23 > 100 µM | SNB-75 41.1 µM

COc1cc(C(SCc2ccccc2)SCc2ccccc2)ccc1O
inactive: M14 > 10 µM | HL-60 > 10 µM | K562 > 10 µM | LOX IMVI > 10 µM | DU-145 > 10 µM | SF-539 > 10 µM | MOLT-4 9.33 µM | UO-31 7.06 µM | SN12C > 10 µM | OVCAR-3 > 10 µM | SF-268 > 10 µM | SR > 10 µM | HCC 2998 > 10 µM | RPMI-8226 > 10 µM | U-251 > 10 µM | UACC-62 > 10 µM | SNB-19 > 10 µM | SNB-75 > 10 µM

Cc1cccc(/N=N/c2c(C)nn(C(=O)CC(=O)Nc3ccc(Cl)cc3)c2C)c1
inactive: A549 > 100 µM | M14 48.3 µM | HL-60 36 µM | LOX IMVI 95.5 µM | DU-145 > 100 µM | SF-539 > 100 µM | MOLT-4 36.6 µM | UO-31 > 100 µM | SN12C > 100 µM | OVCAR-3 82.4 µM | SF-268 55.2 µM | SR 20.8 µM | HCC 2998 > 100 µM | RPMI-8226 > 100 µM | U-251 61.5 µM | UACC-62 > 100 µM | NCI-H23 > 100 µM | SNB-19 80.5 µM | SNB-75 9.51 µM

COc1ccc(C(=O)/C=C/c2ccc3c(c2)OCO3)c(OCc2ccccc2)c1
inactive: A549 47.3 µM | M14 > 65.5 µM | HL-60 2.01 µM | K562 12.5 µM | LOX IMVI 7.89 µM | DU-145 > 39.2 µM | SF-539 32.7 µM | MOLT-4 3.8 µM | UO-31 37.2 µM | SN12C 15.9 µM | OVCAR-3 19.1 µM | SF-268 6.76 µM | SR 3.24 µM | HCC 2998 8.28 µM | RPMI-8226 4.45 µM | U-251 > 57.5 µM | UACC-62 17.4 µM | NCI-H23 24.3 µM | SNB-19 > 100 µM | SNB-75 > 55.1 µM

Cc1c(-c2nc(N)nc(C3CC3)c2C)nc(N)nc1C1CC1
inactive: A549 > 100 µM | M14 > 100 µM | HL-60 > 100 µM | K562 > 100 µM | LOX IMVI > 100 µM | DU-145 > 100 µM | SF-539 > 100 µM | MOLT-4 > 100 µM | UO-31 > 100 µM | SN12C > 100 µM | OVCAR-3 > 100 µM | SF-268 > 100 µM | SR > 100 µM | HCC 2998 > 100 µM | RPMI-8226 > 100 µM | U-251 > 100 µM | UACC-62 > 100 µM | NCI-H23 > 100 µM | SNB-19 > 100 µM | SNB-75 > 100 µM

CC1(C)[C@@H]2CC[C@@]1(C)C1(S[S+]1[O-])C21Cc2ccccc2C1 (some centres undefined)
inactive: A549 36.8 µM | M14 33.4 µM | HL-60 18.1 µM | K562 17.4 µM | LOX IMVI 15.1 µM | DU-145 21.3 µM | SF-539 24.5 µM | MOLT-4 16.3 µM | UO-31 21.4 µM | SN12C 18.1 µM | OVCAR-3 31.7 µM | SF-268 33.1 µM | SR 14.5 µM | HCC 2998 18.5 µM | RPMI-8226 21 µM | U-251 24.9 µM | UACC-62 22.2 µM | NCI-H23 31.8 µM | SNB-19 > 100 µM | SNB-75 31 µM

CC1=NN(c2nc(N)nc(COc3ccc(N)cc3)n2)C(C)(C)C1
inactive: M14 > 100 µM | HL-60 > 100 µM | K562 > 100 µM | LOX IMVI > 100 µM | DU-145 > 100 µM | SF-539 > 100 µM | MOLT-4 > 100 µM | UO-31 > 100 µM | SF-268 > 100 µM | SR > 100 µM | HCC 2998 > 100 µM | RPMI-8226 > 100 µM | U-251 > 100 µM | UACC-62 > 100 µM | NCI-H23 > 100 µM | SNB-19 > 100 µM | SNB-75 > 100 µM
